These compounds were tested against T1, EHMT1 (Homo sapiens, UniProt Q9H9B1) (assay: EHMT1 enzyme assay on peptide substrate (EHMT1 PEP)). Settings: Table VII; read-out: EHMT1 PEP IC50.
T1 sequence (Q9H9B1 1-1298): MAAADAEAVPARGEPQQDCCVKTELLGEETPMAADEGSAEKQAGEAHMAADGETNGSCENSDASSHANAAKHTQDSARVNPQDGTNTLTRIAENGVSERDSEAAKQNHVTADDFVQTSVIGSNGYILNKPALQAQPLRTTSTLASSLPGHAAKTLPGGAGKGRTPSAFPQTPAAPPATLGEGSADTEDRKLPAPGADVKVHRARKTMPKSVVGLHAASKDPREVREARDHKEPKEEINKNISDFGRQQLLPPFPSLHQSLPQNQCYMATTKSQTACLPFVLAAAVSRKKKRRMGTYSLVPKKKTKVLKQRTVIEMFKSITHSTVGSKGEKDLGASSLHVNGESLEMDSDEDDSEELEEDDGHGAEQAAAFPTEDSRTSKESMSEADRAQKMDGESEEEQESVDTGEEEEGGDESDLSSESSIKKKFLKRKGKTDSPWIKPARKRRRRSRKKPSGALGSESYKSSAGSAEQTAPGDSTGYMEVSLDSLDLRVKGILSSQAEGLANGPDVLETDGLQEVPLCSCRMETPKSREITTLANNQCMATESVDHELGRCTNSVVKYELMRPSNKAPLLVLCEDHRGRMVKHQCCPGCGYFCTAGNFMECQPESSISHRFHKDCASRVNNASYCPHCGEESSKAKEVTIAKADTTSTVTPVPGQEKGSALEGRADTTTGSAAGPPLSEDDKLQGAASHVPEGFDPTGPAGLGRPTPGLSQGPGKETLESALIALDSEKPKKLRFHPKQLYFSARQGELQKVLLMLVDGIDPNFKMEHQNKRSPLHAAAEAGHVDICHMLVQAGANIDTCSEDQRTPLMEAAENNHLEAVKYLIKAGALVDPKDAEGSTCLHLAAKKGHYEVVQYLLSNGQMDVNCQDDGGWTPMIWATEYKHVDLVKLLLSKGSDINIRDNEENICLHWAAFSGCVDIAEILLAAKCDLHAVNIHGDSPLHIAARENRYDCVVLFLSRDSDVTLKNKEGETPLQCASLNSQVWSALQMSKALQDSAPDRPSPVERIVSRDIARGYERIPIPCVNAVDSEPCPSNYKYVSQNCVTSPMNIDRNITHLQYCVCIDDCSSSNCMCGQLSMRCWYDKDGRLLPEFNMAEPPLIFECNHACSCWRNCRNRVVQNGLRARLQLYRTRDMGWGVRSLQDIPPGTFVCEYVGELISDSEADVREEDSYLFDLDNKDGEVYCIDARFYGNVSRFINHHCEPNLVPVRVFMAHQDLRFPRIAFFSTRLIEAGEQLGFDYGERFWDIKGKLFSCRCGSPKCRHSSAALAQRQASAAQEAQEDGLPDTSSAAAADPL
Format: biochemical

IC50 [µM]	SMILES
0.1 to 1	CNc1cc(C)nc(Nc2ccc(OC)c(OC[C@@H](O)CN3CCCC3)c2)n1 [Compound 1044]
< 0.1	CNc1cc(C)nc(Nc2ccc(OC)c(OC[C@H](O)CN3CCCC3)c2)n1 [Compound 1045]
1 to 10	CNc1ccnc(Nc2ccc(OC)c(OC[C@@H](O)CN3CCC3)c2)n1 [Compound 1046]
< 0.1	CNc1cc(C2CCOCC2)c2cc(OC)c(OC[C@H](O)CN3CCC3)cc2n1 [Compound 1108]
0.1 to 1	CNc1cc(C)nc(Nc2ccc(OC)c(CNCCNC3CCC3)c2)n1 [Compound 1109]
< 0.1	CNc1cc(C)nc(Nc2cnc(OC)c(CNCCN3CCC3)c2)n1 [Compound 1110]
< 0.1	CNc1cc(C2CCOCC2)c2cc(OC)c(CNCCN3CCCC3)cc2n1 [Compound 1111]
< 0.1	CNc1cc(C)nc(Nc2ccc(OC)c(OC[C@H](O)CN(C)C)c2)n1 [Compound 1112]
< 0.1	CCN(C)C[C@@H](O)COc1cc(Nc2nc(C)cc(NC)n2)ccc1OC [Compound 1113]
> 10	CNc1cc(C)nc(Nc2ccc(C)c(C(=O)NCc3ccon3)c2)n1 [Compound 1114]

Same assay, conditions: read-out: EHMT1 PEP (IC50 μM)

SMILES	IC50 [µM]
CNc1nc(C2CCCC2)c2cc(OC)c(OCCCN3CCCC3)cc2n1 [Compound 518, 4-cyclopentyl-6-methoxy-N-methyl-7-(3-(pyrrolidin-1-yl)propoxy)quinazolin-2-amine]	1 to 10
CNc1nc(C2CCN(C(C)=O)CC2)c2cc(OC)c(OCCCN3CCCC3)cc2n1 [Compound 519]	1 to 10
CNc1nc(C2CCNCC2)c2cc(OC)c(OCCCN3CCCC3)cc2n1 [Compound 520]	< 0.1
CNc1nc(C2CCOCC2)c2cc(OC)c(OCCCN3CCCC3)cc2n1 [Compound 521]	1 to 10
CNc1nc(C2=CCOCC2)c2cc(OC)c(OCCCN3CCCC3)cc2n1 [Compound 522]	1 to 10
CNc1nc(C2CCCCC2)c2cc(OC)c(OCCCN3CCCC3)cc2n1 [Compound 523, 4-cyclohexyl-6-methoxy-N-methyl-7-(3-(pyrrolidin-1-yl)propoxy)quinazolin-2-amine]	1 to 10
CNc1cc(C2CCOCC2)c2cc(OC)c(OCCCN3CCCC3)cc2n1 [Compound 524, 6-methoxy-N-methyl-4-(oxan-4-yl)-7-[3-(pyrrolidin-1-yl)propoxy]quinolin-2-amine]	< 0.1
CNc1nc(C2CCN(C(C)C)CC2)c2cc(OC)c(OC[C@@H]3CCN(C4CC4)C3)cc2n1 [Compound 526]	< 0.1
COc1cc2c(C3CCN(C)CC3)nc(N3CCCC3)nc2cc1OCCCN1CCCC1 [Compound 527]	< 0.1
COc1cc2c(C3CCN(C)CC3)nc(N3CCC(F)(F)CC3)nc2cc1OCCCN1CCCC1 [Compound 528]	0.1 to 1
COc1cc2c(C3CCN(C)CC3)nc(NC3CCCC3)nc2cc1OCCCN1CCCC1 [Compound 529]	< 0.1
CNc1nc(C2CCN(C(C)C)CC2)c2cc(OC)c(OCCCN3CCCC3)cc2n1 [Compound 530]	< 0.1
CNc1nc(C2CCN(C)CC2)c2cc(OC)c(OCCCN3CC4CC4C3)cc2n1 (stereo not shown) [Compound 532]	< 0.1
CNc1nc(C2CCN(CCO)CC2)c2cc(OC)c(OCCCN3CCCC3)cc2n1 [Compound 533]	< 0.1

Next, values leading:

IC50 [µM]	SMILES
1 to 10	CNc1nc(C2CC(C)(C)NC(C)(C)C2)c2cc(OC)c(OCCCN3CCCC3)cc2n1 [Compound 534]
< 0.1	CNc1cc(C2CCN(C)CC2)c2cc(OC)c(OCCCN3CCCC3)cc2n1 [Compound 535]
< 0.1	COc1cc2c(C3CCN(C)CC3)cc(C)nc2cc1OCCCN1CCCC1 [Compound 536]
> 10	CCCCNc1nccc(NC)n1 [Compound 543, N^2-butyl-N^4-methylpyrimidine-2,4-diamine]

— patent US20210198277A1, “AMINE-SUBSTITUTED ARYL OR HETEROARYL COMPOUNDS” (Epizyme, Inc., priority 2016, published 2021)
